“And” between values parts separate entries of the source, which are not always exact repeats. Equal entries are not always repeated. Where two headings read alike, the source gives them in different places.
Key:
[1] = Quantification of TIZ in plasma, lung and nasal turbinates of hamsters (HPLC-UV); assay type: in vivo, Syrian hamsters
Protocol: Quantification of TIZ in plasma and lung tissues was performed by high-performance liquid chromatography with UV detection method (Alliance 2695, Waters, USA) with a lower limit of quantification of 0.01µg/mL. The mobile phase consisted of 0.1% FA in water and 0.1% of FA in ACN (65:35, v/v). The chromatographic separation was achieved using an isocratic mode with an Xbridge BEH C18 2.5μm 4.6 × 100mm column. Peak area was quantified at 340nm using the Waters 2489 detector. TIZ was extracted by a simple protein precipitation method, using acetonitrile for plasma and ice-cold acetonitrile for clarified lung homogenates. Briefly, 200µL of samples matrix was added to 1000µL of acetonitrile solution containing the internal standard (thiopental), then vortexed for 2min followed by centrifugation for 10min at 4°C. The supernatant medium was evaporated under vacuum, then transferred to a 1.5mL Eppendorf tube. The dried residue was reconstituted with 100µl of ACN:water (50:50), vortexed for 30 seconds and centrifuged again for 10min at 4°C. The supernatant was transferred to an autosampler and 50µL was injected.
We used tissues from infected animals sacrificed at 3 dpi following multiple administration (animals from Figure 3); an additional group of uninfected animals treated with a single dose of 13.5mg was used as control. TIZ concentration in plasma and in lung was quantified at 1, 2 and 4 hours post treatment for the single dose analysis (group of 3 animals) and at 12 hours after the last administration for the multiple dose analysis (group of 6 animals).

[2] = in vivo, cited from earlier work
[3] = multiple dose NTZ 500mg/kg/day BID oral, at 3 dpi, 12 h (trough), individual values
[4] = multiple dose NTZ 750mg/kg/day TID oral, at 3 dpi, 12 hours (trough), individual values
[5] = multiple dose, infected animals, nitazoxanide per os 500 mg/kg/day BID, 12h post-administration, individual animals
[6] = multiple dose, infected animals, nitazoxanide per os 750 mg/kg/day TID, 12h post-administration, individual animals
[7] = single dose nitazoxanide 13.5mg, uninfected animals, 1h post-administration, individual animals
[8] = single dose nitazoxanide 13.5mg, uninfected animals, 2h post-administration, individual animals
[9] = single dose nitazoxanide 13.5mg, uninfected animals, 4h post-administration, individual animals
[10] = single oral dose 13.5mg NTZ, uninfected hamsters, 1 h post-treatment, individual values
[11] = single oral dose 13.5mg NTZ, uninfected hamsters, 2 h post-treatment, individual values
[12] = single oral dose 13.5mg NTZ, uninfected hamsters, 4 h post-treatment, individual values

`O=C(Nc1ncc([N+](=O)[O-])s1)c1ccccc1O` [TIZ, tizoxanide] showed a Kp at 12 h ([1]; Syrian, hamster, in vivo, 2.8 mg/kg/day TID, multiple dose, infected animals, nitazoxanide IN 2,8 mg/kg/day TID, 12h post-administration, individual animals, read-out: Lung to plasma ratio) of 12.8, a concentration at 12 h ([1]; Syrian, hamster, in vivo, 2.8 mg/kg/day TID, multiple dose, infected animals, nitazoxanide IN 2,8 mg/kg/day TID, 12h post-administration, individual animals, read-out: Tizoxanide concentration in blood) of 8 ng/mL and a concentration at 12 h ([1]; Syrian, hamster, in vivo, 2.8 mg/kg/day, multiple dose, infected animals, nitazoxanide IN 2,8 mg/kg/day TID, 12h post-administration, individual animals, read-out: Tizoxanide concentration in blood) of 30 nM. For the same compound, the concentration at 12 h ([1]; Syrian, hamster, in vivo, 2.8 mg/kg/day, multiple dose, infected animals, nitazoxanide IN 2,8 mg/kg/day TID, 12h post-administration, individual animals, read-out: Tizoxanide concentration in lungs) was 11.7 ng/mL and 40 nM, the concentration at 12 h ([1]; Syrian, hamster, in vivo, 750 mg/kg/day TID, multiple dose, infected animals, nitazoxanide per os 750 mg/kg/day TID, 12h post-administration, individual animals, read-out: Tizoxanide concentration in lungs) was 40 nM and the Kp at 12 h ([1]; hamster, in vivo, 2.8 mg/kg/day, multiple dose NTZ 2.8mg/kg/day TID intranasal, at 3 dpi, 12 hours (trough), read-out: L/p ratio) was 1280. The concentration at 12 h ([1]; hamster, in vivo, 2.8 mg/kg/day, multiple dose, infected animals, nitazoxanide IN 2,8 mg/kg/day TID, 12h post-administration, individual animals, read-out: Tizoxanide concentration in lungs) was 103 ng/g, the concentration at 12 h ([1]; hamster, in vivo, 2.8 mg/kg/day, multiple dose, infected animals, nitazoxanide IN 2,8 mg/kg/day TID, 12h post-administration, individual animals, read-out: Tizoxanide concentration in nasal turbinates) was 14.8 ng/mL and 60 nM and the Kp ([1]; hamster, in vivo, 13.5 mg, after single-dose administration (13.5mg NTZ), hamsters, read-out: lung/plasma ratio) was 0.022 to 0.048. For the same compound, the concentration at 1 h ([1]; hamster, in vivo, 13.5 mg, single dose nitazoxanide 13.5mg, uninfected animals, 1h post-administration, individual animals, read-out: Tizoxanide concentration in lungs) was 21.5 ng/mL and 80 nM and 161 ng/g, the Kp at 2 h ([1]; hamster, in vivo, 13.5 mg, single dose nitazoxanide 13.5mg, uninfected animals, 2h post-administration, individual animals, read-out: Lung to plasma ratio) was 0.027 and the concentration at 2 h ([1]; hamster, in vivo, 13.5 mg, single dose nitazoxanide 13.5mg, uninfected animals, 2h post-administration, individual animals, read-out: Tizoxanide concentration in lungs) was 17.1 ng/mL and 60 nM and 132 ng/g. The Kp at 4 h ([1]; hamster, in vivo, 13.5 mg, single dose nitazoxanide 13.5mg, uninfected animals, 4h post-administration, individual animals, read-out: Lung to plasma ratio) was 0.042, the concentration at 4 h ([1]; hamster, in vivo, 13.5 mg, single dose nitazoxanide 13.5mg, uninfected animals, 4h post-administration, individual animals, read-out: Tizoxanide concentration in lungs) was 8.3 ng/mL and 30 nM and 61 ng/g and the concentration at 12 h ([1]; hamster, in vivo, 500 mg/kg/day BID, multiple dose NTZ 500mg/kg/day BID oral, infected hamsters at 3 dpi, 12 h after last dose (trough), mean ± SD, read-out: TIZ concentration Plasma) was 940 ng/mL and 940 nM. The concentration at 12 h ([1]; hamster, in vivo, 500 mg/kg/day BID, multiple dose, infected animals, nitazoxanide per os 500 mg/kg/day BID, 12h post-administration, individual animals, read-out: Tizoxanide concentration in lungs) was 8.1 ng/mL and 30 nM and 57 ng/g, the concentration at 12 h ([1]; hamster, in vivo, 750 mg/kg/day TID, multiple dose NTZ 750mg/kg/day TID oral, infected hamsters at 3 dpi, 12 hours after last dose (trough), mean ± SD, read-out: TIZ concentration Plasma) was 1490 ng/mL and 1.49 µM and the concentration at 1 h ([1]; hamster, in vivo, po, 13.5 mg, single oral dose 13.5mg NTZ, uninfected hamsters, 1 h post-treatment, mean ± SD, read-out: TIZ concentration Plasma) was 5160 ng/mL and 5.16 µM. The Kp at 2 h ([1]; hamster, in vivo, po, 13.5 mg, single oral dose 13.5mg NTZ, uninfected hamsters, 2 h post-treatment, individual values, read-out: L/p ratio (%)) was 0.027, the concentration at 2 h ([1]; hamster, in vivo, po, 13.5 mg, single oral dose 13.5mg NTZ, uninfected hamsters, 2 h post-treatment, mean ± SD, read-out: TIZ concentration Plasma) was 3390 ng/mL and 3.39 µM and the Kp at 4 h ([1]; hamster, in vivo, po, 13.5 mg, single oral dose 13.5mg NTZ, uninfected hamsters, 4 h post-treatment, individual values, read-out: L/p ratio (%)) was 0.042. The concentration at 4 h ([1]; hamster, in vivo, po, 13.5 mg, single oral dose 13.5mg NTZ, uninfected hamsters, 4 h post-treatment, mean ± SD, read-out: TIZ concentration Plasma) was 820 ng/mL and 820 nM, the “TIZ concentration Lung (µM/g)” value ([1]; multiple dose NTZ 2.8mg/kg/day TID intranasal, at 3 dpi, 12 hours (trough), individual values) was 0.39 µM/g and 0.41 µM/g and the “L/p ratio (%)” value [1, 3] was 2.7% and 32.8%. For the same compound, the “TIZ concentration Lung (µM/g)” value [1, 3] was 0.21 µM/g, the “L/p ratio (%)” value [1, 4] was 2.9% and 6.3% and the “TIZ concentration Lung (µM/g)” value [1, 4] was 0.28 µM/g and 0.60 µM/g. The “Tizoxanide concentration in lungs” value ([1]; multiple dose, infected animals, nitazoxanide IN 2,8 mg/kg/day TID, 12h post-administration, individual animals) was 0.39 µM/g of lung and 11.3 ng/mL and 110 ng/g of lung and 0.41 µM/g of lung, the “Lung to plasma ratio” value [1, 5] was 2.7% and 32.8% and the “Tizoxanide concentration in blood” value [1, 5] was 40 ng/mL and 159 ng/mL and 2131 ng/mL and 2192 ng/mL and 171 ng/mL. For the same compound, the “Tizoxanide concentration in lungs” value [1, 5] was 0.21 µM/g of lung and 10.6 ng/mL and 56 ng/g of lung, the concentration at 12 h ([1]; multiple dose, infected animals, nitazoxanide per os 500 mg/kg/day BID, 12h post-administration, individual animals, read-out: Tizoxanide concentration in blood) was 150 nM and 600 nM and 8030 nM and 8260 nM and 640 nM and the concentration at 12 h ([1]; multiple dose, infected animals, nitazoxanide per os 500 mg/kg/day BID, 12h post-administration, individual animals, read-out: Tizoxanide concentration in lungs) was 40 nM. For the same compound, the “Lung to plasma ratio” value [1, 6] was 2.9% and 6.3%, the “Tizoxanide concentration in blood” value [1, 6] was 40 ng/mL and 2494 ng/mL and 79 ng/mL and 2205 ng/mL and 1637 ng/mL and 2500 ng/mL and the “Tizoxanide concentration in lungs” value [1, 6] was 9.7 ng/mL and 73 ng/g of lung and 0.28 µM/g of lung and 21.0 ng/mL and 158 ng/g of lung and 0.60 µM/g of lung. For the same compound, the concentration at 12 h ([1]; multiple dose, infected animals, nitazoxanide per os 750 mg/kg/day TID, 12h post-administration, individual animals, read-out: Tizoxanide concentration in blood) was 150 nM and 9400 nM and 300 nM and 8310 nM and 6170 nM and 9430 nM, the concentration at 12 h ([1]; multiple dose, infected animals, nitazoxanide per os 750 mg/kg/day TID, 12h post-administration, individual animals, read-out: Tizoxanide concentration in lungs) was 80 nM and the “Lung to plasma ratio” value [1, 7] was 4.8% and 2.2%. The “Tizoxanide concentration in blood” value [1, 7] was 3319 ng/mL and 10008 ng/mL and 2151 ng/mL, the “Tizoxanide concentration in lungs” value [1, 7] was 0.61 µM/g of lung and 26.7 ng/mL and 224 ng/g of lung and 0.84 µM/g of lung and the concentration at 12 h ([1]; single dose nitazoxanide 13.5mg, uninfected animals, 1h post-administration, individual animals, read-out: Tizoxanide concentration in blood) was 12510 nM and 37730 nM and 8110 nM. For the same compound, the concentration at 12 h ([1]; single dose nitazoxanide 13.5mg, uninfected animals, 1h post-administration, individual animals, read-out: Tizoxanide concentration in lungs) was 100 nM, the “Tizoxanide concentration in blood” value [1, 8] was 1477 ng/mL and 3758 ng/mL and 4927 ng/mL and the “Tizoxanide concentration in lungs” value [1, 8] was 0.50 µM/g of lung. The concentration at 12 h ([1]; single dose nitazoxanide 13.5mg, uninfected animals, 2h post-administration, individual animals, read-out: Tizoxanide concentration in blood) was 5570 nM and 14170 nM and 18580 nM, the “Tizoxanide concentration in blood” value [1, 9] was 344 ng/mL and 666 ng/mL and 1459 ng/mL and the “Tizoxanide concentration in lungs” value [1, 9] was 0.23 µM/g of lung. For the same compound, the concentration at 12 h ([1]; single dose nitazoxanide 13.5mg, uninfected animals, 4h post-administration, individual animals, read-out: Tizoxanide concentration in blood) was 1300 nM and 2510 nM and 5500 nM, the “L/p ratio (%)” value [1, 10] was 4.8% and 2.2% and the “TIZ concentration Lung” value [1, 10] was 0.16 µg/g and 0.22 µg/g. For the same compound, the “TIZ concentration Lung (µM/g)” value [1, 10] was 0.61 µM/g and 0.84 µM/g, the “TIZ concentration Lung” value [1, 11] was 0.13 µg/g and the “TIZ concentration Lung (µM/g)” value [1, 11] was 0.50 µM/g. For the same compound, the “TIZ concentration Lung” value [1, 12] was 0.06 µg/g, the “TIZ concentration Lung (µM/g)” value [1, 12] was 0.23 µM/g and the Tmax ([2]; human) was “approximately 2 hours”. For the same compound, the apparent clearance [2] was 19.34 L/h and the volume of distribution [2] was 38.68 L.

— article PMC9271885 (eBioMedicine, 2022)
